Assay: Absorption maximum after colour development in a photographic silver halide layer according to Use Example I
Assay type: physicochemical
Details: not given
Description: The compounds of the formulae which follow are prepared according to methods which are in themselves known, from the corresponding 4-equivalentcoupling agents (the corresponding compounds with hydrogen in the position marked with *, in place of the substituents drawn). With regard to methods of manufacture, compare DT-OS or DT-AS 1,236,332, 2,043,271, 1,547,672 or 1,187,477. Next to the formula, the absorption maximum in nm is specified in each case (see footnote to Table I). ##SPC8##
*)After colour development of the coupling agents in a photographic silve
halide layer according to Use Example I
0.3 mmol of coupling agent of the formula (215) is dissolved in 2.0 ml of tricresyl phosphate/methylene chloride (3:7). The methylene chloride is evaporated off, 6.0 ml of an 8% strength aqueous solution of sodium isopropylnaphthalene-sulphonate, 20.0 ml of 6% strength gelatine solution and 3.4 ml of water are added and the mixture is adjusted to pH 6.5 and emulsified for 5 minutes by means of an ultrasonic apparatus with an output of 100 watt.
5.0 of coupling agent emulsion freshly treated with ultrasonics, 3.3 ml of silver bromide emulsion of pH 6.5, containing 1.4% of silver and 6.0% of gelatine, 2.0 ml of 1% strength aqueous solution of the hardener of the formula [formula] and 1.7 ml of water are mixed with one another and cast at 40°C on a substrated glass plate of size 13 cm × 18 cm. After solidifying at 10° C, the plate is dried in a drying cabinet with circulating air at 32° C.
A strip cut to 4.0 cm × 6.5 cm is exposed to 500 Lux/cm^2 under a step wedge for 2 seconds and is subsequently treated at 24° C as follows: […]

SMILES	Abs.max. (single maximum) [nm]
CCCCOP(=O)(CCCOc1cc(OCCCP(=O)(OCCCC)OCCCC)cc(C(=O)Nc2cc(Cl)c(C)c(Cl)c2O)c1)OCCCC [(701)]	662
CCOP(=O)(CCCc1ccc(NC(=O)CC(=O)c2ccccc2)cc1)OCC [(101)]	437
CCCCOP(=O)(OCCCC)C(CC)OC(=O)c1ccc(NC(=O)CC(=O)c2ccccc2OC)cc1 (stereo not drawn) [(142)]	435
CCCCCCOP(=O)(OCCCCCC)c1ccc(NC(=O)c2cccc(NC(=O)CC(=O)c3ccc(Cl)cc3)c2)cc1 [(145)]	449
CCCCC(CC)COP(=O)(CCCNC(=O)c1ccc(Cl)c(NC(=O)CC(=O)c2ccccc2OC)c1)OCC(CC)CCCC (stereo not drawn) [(133)]	436
CC(C)(C)P(=O)(Oc1ccccc1)Oc1ccc(NC(=O)CC(=O)c2ccccc2)cc1 (stereo not drawn) [(129)]	440
CCCCOP(=O)(Cc1ccc(CP(=O)(OCCCC)OCCCC)c(NC(=O)c2ccc(C)c(NC(=O)CC(=O)c3ccccc3Cl)c2)c1)OCCCC [(143)]	440
CCCCOP(=O)(CCCc1ccc(NC(=O)c2ccc(OC)c(NC(=O)CC(=O)c3ccc(OC)cc3)c2)cc1)OCCCC [(126)]	448
CCCCOP(=O)(CCCc1ccc(NC(=O)CC(=O)c2ccc(Cl)cc2)cc1)OCCCC [(125)]	440
CCCCOP(=O)(CCCOc1cccc(C(=O)Nc2cccc(C(=O)CC(=O)Nc3cc(C)ccc3OC)c2)c1)OCCCC [(121)]	434
CCCCOP(=O)(Cc1ccc(CP(=O)(OCCCC)OCCCC)c(NC(=O)c2ccc(OC)c(NC(=O)CC(=O)c3ccc(C(C)(C)C)cc3)c2)c1)OCCCC [(136)]	440
COc1ccc(C(=O)C(Cl)C(=O)Nc2ccc(OP(=O)(Oc3ccccc3)C(C)(C)C)cc2)cc1 (stereo not drawn) [(146)]	437
COc1ccc(C(=O)CC(=O)Nc2ccc(OP(=O)(Oc3ccccc3)C(C)(C)C)cc2)cc1 (stereo not drawn) [(130)]	437
CCCCOP(=O)(CCCOc1cc(OCCCP(=O)(OCCCC)OCCCC)cc(C(=O)Nc2ccc(Cl)c(NC(=O)CC(=O)C(C)(C)C)c2)c1)OCCCC [(116)]	444
COc1ccc(C(=O)NCCCP(=O)(OC(C)C)OC(C)C)cc1NC(=O)CC(=O)c1ccc(Cl)cc1 [(127)]	444

Same assay, conditions: pyrazolone coupling agents

SMILES	Abs.max., first of two maxima (subsidiary maximum) [nm]	Abs.max., second of two maxima (absorption maximum) [nm]
CCCCC(CC)COP(=O)(CCCOc1cccc(C(=O)Nc2cccc(C(=O)NC3=NN(c4c(Cl)cc(Cl)cc4Cl)C(=O)C3)c2)c1)OCC(CC)CCCC (stereo not drawn) [(219)]	436	542
CCCCOP(=O)(CCCOc1ccc(C(=O)Nc2cccc(C(=O)NC3=NN(c4c(Cl)cc(Cl)cc4Cl)C(=O)C3)c2)c(OCCCP(=O)(OCCCC)OCCCC)c1)OCCCC [(248)]	436	541
CCCCC(CC)COP(=O)(CCCOc1cccc(C(=O)Nc2cccc(C(=O)NC3=NN(c4c(Cl)cc(Cl)cc4OC)C(=O)C3)c2)c1)OCC(CC)CCCC (stereo not drawn) [(268)]	438	540
CCCCOP(=O)(CCCOc1cccc(C(=O)Nc2ccc(NC3=NN(c4ccccc4)C(=O)C3)cc2)c1)OCCCC [(417)]	428	530
CCOP(=O)(CCCOc1cccc(C(=O)Nc2cccc(NC3=NN(c4ccccc4)C(=O)C3)c2)c1)OCC [(414)]	430	530
CCCCC(CC)COP(=O)(CCCOc1cccc(C(=O)Nc2cccc(C(=O)NC3=NN(c4nc5ccccc5s4)C(=O)C3)c2)c1)OCC(CC)CCCC (stereo not drawn) [(259)]	548	583
CCCCOP(=O)(CCCOc1cc(OCCCP(=O)(OCCCC)OCCCC)cc(C(=O)Nc2cccc(C(=O)NC3=NN(c4c(Cl)cc(OC)cc4Cl)C(=O)C3)c2)c1)OCCCC [(266)]	436	540
CCOP(=O)(CCCc1ccc(NC2=NN(c3cccc(Cl)c3)C(=O)C2)cc1)OCC [(410)]	438	532
CCOP(=O)(CCCOc1cccc(C(=O)NC2=NN(c3c(Cl)cc(Cl)cc3Cl)C(=O)C2)c1)OCC [(202)]	434	535
CCCCOP(=O)(CCCOc1cc(OCCCP(=O)(OCCCC)OCCCC)cc(C(=O)NC2=NN(c3c(C)c(Cl)c(OC)c(Cl)c3Cl)C(=O)C2)c1)OCCCC [(254)]	438	540
CCCCOP(=O)(CCCOc1cc(OCCCP(=O)(OCCCC)OCCCC)cc(C(=O)Nc2cccc(C(=O)NC3=NN(c4c(Cl)cc(Cl)cc4Cl)C(=O)C3)c2)c1)OCCCC [(222)]	434	544
CCCCOP(=O)(CCCOc1cccc(C(=O)Nc2cccc(NC3=NN(c4c(Cl)cc(Cl)cc4Cl)C(=O)C3)c2)c1)OCCCC [(419)]	427	532
CCCCOP(=O)(CCCOc1cc(OCCCP(=O)(OCCCC)OCCCC)cc(C(=O)NC2=NN(c3nc4ccccc4s3)C(=O)C2)c1)OCCCC [(257)]	430	537
CCCCC(CC)COP(=O)(CCCOc1cc(OCCCP(=O)(OCC(CC)CCCC)OCC(CC)CCCC)cc(C(=O)Nc2ccc(C(=O)NC3=NN(c4c(Cl)cc(Cl)cc4Cl)C(=O)C3)cc2)c1)OCC(CC)CCCC (stereo not drawn) [(234)]	434	540
CCCCOP(=O)(CCCOc1cc(OCCCP(=O)(OCCCC)OCCCC)cc(C(=O)Nc2cccc(NC3=NN(c4ccccc4)C(=O)C3)c2)c1)OCCCC [(423)]	430	530
CCCCOP(=O)(CCCOc1cccc(C(=O)Nc2cccc(C(=O)NC3=NN(c4c(Cl)cc(Cl)cc4Cl)C(=O)C3)c2)c1)OCCCC [(220)]	434	544
CCOP(=O)(CCCOc1cc(OCCCP(=O)(OCC)OCC)cc(C(=O)NC2=NN(c3c(Cl)cc(Cl)cc3Cl)C(=O)C2)c1)OCC [(209)]	436	540
CCCCC(CC)COP(=O)(CCCOc1cccc(OCC(=O)Nc2cccc(C(=O)NC3=NN(c4c(Cl)cc(Cl)cc4Cl)C(=O)C3)c2)c1)OCC(CC)CCCC (stereo not drawn) [(270)]	438	544
CCOP(=O)(CCCOc1cccc(C(=O)Nc2ccc(C(=O)NC3=NN(c4c(Cl)cc(Cl)cc4Cl)C(=O)C3)cc2)c1)OCC [(201)]	432	542
CCOP(=O)(CCCCCOc1cccc(C(=O)Nc2cccc(C(=O)NC3=NN(c4ccccc4)C(=O)C3)c2)c1)OCC [(227)]	438	532
CCCCC(CC)COP(=O)(CCCOc1cc(OCCCP(=O)(OCC(CC)CCCC)OCC(CC)CCCC)cc(C(=O)Nc2cccc(C(=O)NC3=NN(c4c(C)cc(C)cc4Cl)C(=O)C3)c2)c1)OCC(CC)CCCC (stereo not drawn) [(263)]	440	534
CCCCOP(=O)(CCCOc1cccc(C(=O)Nc2cccc(C(=O)NC3=NN(c4ccccc4)C(=O)C3)c2)c1)OCCCC [(224)]	440	534
CCOP(=O)(CCCCCOc1cccc(C(=O)Nc2ccc(C(=O)NC3=NN(c4c(Cl)cc(Cl)cc4Cl)C(=O)C3)cc2)c1)OCC [(207)]	434	540
CCOP(=O)(CCCOc1ccc(C(=O)Nc2cccc(C(=O)NC3=NN(c4c(Cl)cc(Cl)cc4Cl)C(=O)C3)c2)cc1)OCC [(206)]	434	542
CCCCOP(=O)(CCCOc1cc(OCCCP(=O)(OCCCC)OCCCC)cc(C(=O)Nc2cccc(C(=O)NC3=NN(c4ccccc4)C(=O)C3)c2)c1)OCCCC [(229)]	440	532
CCOP(=O)(CCCOc1ccc(C(=O)Nc2ccc(C(=O)NC3=NN(c4c(Cl)cc(Cl)cc4Cl)C(=O)C3)cc2)cc1)OCC [(203)]	434	539
CCOP(=O)(CCCCCOc1cc(OCCCCCP(=O)(OCC)OCC)cc(C(=O)Nc2ccc(C(=O)NC3=NN(c4c(Cl)cc(Cl)cc4Cl)C(=O)C3)cc2)c1)OCC [(212)]	434	544
